Laboratory results taken from ChEMBL document CHEMBL1201862, “PubChem BioAssay data set” (2004).
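Briefly, cells in 96-well plates were exposed to five compound concentrations for 48 h, and endpoints were estimated by linear interpolation. Abbreviation: GI50, concentration required for 50% inhibition of growth.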 Active and inactive are the calls of the source. Rule as the data show it: active = GI50 up to about 1.1 µM and inactive = higher.

Tests used:
Assay in all cases: DTP human tumour cell line panel, 48 h
COLO 205 = system: COLO 205
DU-145 = system: DU-145
EKVX = system: EKVX
HCT-116 = system: HCT-116
HCT-15 = system: HCT-15
HL-60 = system: HL-60
HOP-62 = system: HOP-62
HOP-92 = system: HOP-92
Hs-578T = system: Hs-578T
M14 = system: M14
MCF7 = system: MCF7
MDA-MB-435 = system: MDA-MB-435
NCI-H226 = system: NCI-H226
OVCAR-4 = system: OVCAR-4
PC-3 = system: PC-3
RXF 393 = system: RXF 393
SF-295 = system: SF-295
SN12C = system: SN12C
U-251 = system: U-251
UO-31 = system: UO-31

Structure (SMILES) | GI50 (COLO 205) | GI50 (DU-145) | GI50 (EKVX) | GI50 (HCT-116) | GI50 (HCT-15) [µM] | GI50 (HL-60) | GI50 (HOP-62) | GI50 (HOP-92) | GI50 (Hs-578T) | GI50 (M14) | GI50 (MCF7) | GI50 (MDA-MB-435) | GI50 (NCI-H226) | GI50 (OVCAR-4) | GI50 (PC-3) | GI50 (RXF 393) | GI50 (SF-295) | GI50 (SN12C) | GI50 (U-251) | GI50 (UO-31)
COc1ccc(C2C(=O)c3ccc(OC)cc3OC2c2cccnc2)cc1 (stereo not given) | > 100 µM (inactive) | > 100 µM (inactive) | > 100 µM (inactive) | > 100 µM (inactive) | > 100 | > 100 µM (inactive) | 33.2 µM (inactive) | 22.5 µM (inactive) | 45.1 µM (inactive) | > 100 µM (inactive) | > 100 µM (inactive) | > 100 µM (inactive) | 44.2 µM (inactive) | > 100 µM (inactive) | > 100 µM (inactive) | 86.3 µM (inactive) | 46.6 µM (inactive) | > 100 µM (inactive) | 70.3 µM (inactive) | > 100 µM (inactive)
O=[N+]([O-])c1cccc2nc3ccccc3c(NCCNCCO)c12 | 0.00176 µM (active) | 0.00288 µM (active) | 0.00853 µM (active) | 0.0197 µM (active) | 0.0405 | 0.0177 µM (active) | 0.0169 µM (active) | 0.00365 µM (active) | 0.0251 µM (active) | 0.011 µM (active) | 0.001 µM (active) | 0.011 µM (active) | 0.0166 µM (active) | 0.00335 µM (active) | 0.00245 µM (active) | 0.00513 µM (active) | 0.00425 µM (active) | 0.0122 µM (active) | 0.0118 µM (active) | 0.07 µM (active)
O=C(O)c1cnc2c(ccc3ncc(C(=O)O)c(O)c32)c1O | > 100 µM (inactive) | > 100 µM (inactive) | > 100 µM (inactive) | > 100 µM (inactive) | > 100 | > 100 µM (inactive) | > 100 µM (inactive) | > 100 µM (inactive) | > 100 µM (inactive) | > 100 µM (inactive) | > 100 µM (inactive) | > 100 µM (inactive) | > 100 µM (inactive) | > 100 µM (inactive) | > 100 µM (inactive) | > 100 µM (inactive) | > 100 µM (inactive) | > 100 µM (inactive) | > 100 µM (inactive) | > 100 µM (inactive)
COC(=O)C(C(=O)OC)C1CC(=O)c2c(Br)sc(Br)c21 (stereo not given) | 15.2 µM (inactive) | 16.4 µM (inactive) | 15.2 µM (inactive) | 14.6 µM (inactive) | 9.44 | 21.2 µM (inactive) | 17.3 µM (inactive) | 15.4 µM (inactive) | 20.9 µM (inactive) | 18.3 µM (inactive) | 13.6 µM (inactive) | 17.5 µM (inactive) | 22 µM (inactive) | 13 µM (inactive) | 14.2 µM (inactive) | 26.1 µM (inactive) | 21.8 µM (inactive) | 14.7 µM (inactive) | 16.3 µM (inactive) | 14.5 µM (inactive)
CC(C)(C)[Si](C)(C)OCC1OC(n2cnc3c(NC(=O)c4ccccc4)ncnc32)CC1O (stereo not given) | 18.3 µM (inactive) | 64 µM (inactive) | 40.3 µM (inactive) | 29.7 µM (inactive) | 51.1 | 28 µM (inactive) | 19 µM (inactive) | 23.5 µM (inactive) | 19.2 µM (inactive) | 19.9 µM (inactive) | 44.4 µM (inactive) | 22.1 µM (inactive) | 24.5 µM (inactive) | 24 µM (inactive) | 37.5 µM (inactive) | 22.3 µM (inactive) | 24.4 µM (inactive) | 33.4 µM (inactive) | 20.5 µM (inactive) | 1.47 µM (inactive)
COC(=O)c1cc2c(cc1CC(Cc1ccc3c(c1)CCC3)C(=O)OC)CCC2 (stereo not given) | 29.5 µM (inactive) | 83.8 µM (inactive) | 27 µM (inactive) | 40.7 µM (inactive) | 39.2 | 8.61 µM (inactive) | > 100 µM (inactive) | 21 µM (inactive) | 66.2 µM (inactive) | 72.8 µM (inactive) | 24.8 µM (inactive) | 31 µM (inactive) | 7.24 µM (inactive) | 24 µM (inactive) | 16.6 µM (inactive) | 18.1 µM (inactive) | 84.5 µM (inactive) | > 100 µM (inactive) | 50.9 µM (inactive) | 63.7 µM (inactive)
O=C1CC(=O)c2c(O)cc(O)c(c2O)-c2c(ccc(O)c2O)C2=CC(=O)c3c(O)cc(O)c(c3O2)-c2c1ccc(O)c2O.O=C1CC2(O)Oc3c1c(O)cc(O)c3-c1c(ccc(O)c1O)-c1cc(=O)c3c(O)cc(O)c(c3o1)-c1c2ccc(O)c1O | > 50 µM (inactive) | > 50 µM (inactive) | > 50 µM (inactive) | > 50 µM (inactive) | > 50 | > 50 µM (inactive) | > 50 µM (inactive) | > 50 µM (inactive) | > 50 µM (inactive) | > 50 µM (inactive) | > 50 µM (inactive) | > 50 µM (inactive) | > 50 µM (inactive) | > 50 µM (inactive) | > 50 µM (inactive) | > 50 µM (inactive) | > 50 µM (inactive) | > 50 µM (inactive) | > 50 µM (inactive) | > 50 µM (inactive)
COC(=O)N/N=C(/CC1(O)C(=O)Nc2ccc([N+](=O)[O-])cc21)c1ccccc1 (stereo not given) | 50.7 µM (inactive) | > 100 µM (inactive) | > 54.1 µM (inactive) | 24.1 µM (inactive) | > 51.2 | 35 µM (inactive) | 31 µM (inactive) | 33 µM (inactive) | 20.8 µM (inactive) | 34 µM (inactive) | 1.19 µM (inactive) | 20.8 µM (inactive) | 40.9 µM (inactive) | 47.3 µM (inactive) | 38.8 µM (inactive) | 22 µM (inactive) | 17.5 µM (inactive) | > 74 µM (inactive) | 29.9 µM (inactive) | 40.9 µM (inactive)
